{"source": "paper PMC9177597", "about": "“Structural basis of substrate recognition and translocation by human very long-chain fatty acid transporter ABCD1” (Nature Communications, 2022)", "assay_in_all_cases": "substrate-stimulated ATPase assay (colorimetric Pi release)", "format_in_all_cases": "biochemical", "key": {"chABCD1 (chimeric ABCD1) [1]": {"molecular_target": "T1, chABCD1 (chimeric ABCD1) (Homo sapiens, UniProt P33897, T693M)", "T1 construct": "single polypeptide: N-terminal FLAG tag, PMP-4 residues 1-65 replacing human ABCD1 residues 1-63, then human ABCD1 64-745; HEK293F; homodimer; LMNG/CHS for assays, digitonin for cryo-EM; with PMP-4 (peroxisomal membrane protein related, ABCD1 homolog, Caenorhabditis elegans; N-terminal segment fused to the target chain)", "T1 sequence (P33897 64-745 T693M)": "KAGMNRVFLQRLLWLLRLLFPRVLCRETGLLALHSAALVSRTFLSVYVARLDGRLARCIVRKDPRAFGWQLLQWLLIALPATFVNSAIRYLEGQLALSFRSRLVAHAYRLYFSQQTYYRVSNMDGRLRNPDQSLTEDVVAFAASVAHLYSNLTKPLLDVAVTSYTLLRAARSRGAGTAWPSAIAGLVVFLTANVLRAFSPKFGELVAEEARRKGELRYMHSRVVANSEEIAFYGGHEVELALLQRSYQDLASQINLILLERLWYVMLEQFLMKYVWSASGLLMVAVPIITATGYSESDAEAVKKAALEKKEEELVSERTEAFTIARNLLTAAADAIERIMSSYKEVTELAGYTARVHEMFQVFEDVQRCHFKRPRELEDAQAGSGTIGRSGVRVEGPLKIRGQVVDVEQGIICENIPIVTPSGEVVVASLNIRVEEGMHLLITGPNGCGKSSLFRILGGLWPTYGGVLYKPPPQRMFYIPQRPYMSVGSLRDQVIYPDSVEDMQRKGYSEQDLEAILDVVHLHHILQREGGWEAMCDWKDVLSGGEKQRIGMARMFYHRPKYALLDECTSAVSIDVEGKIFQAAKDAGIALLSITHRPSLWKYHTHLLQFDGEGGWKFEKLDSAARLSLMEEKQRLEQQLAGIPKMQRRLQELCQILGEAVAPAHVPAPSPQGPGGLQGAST", "settings": "2 mM ATP, 2 mM MgCl2, LMNG + CHS, pH 7.5, 37 °C, varying C22:0-CoA"}, "chABCD1 (chimeric ABCD1) [2]": {"molecular_target": "T2, chABCD1 (chimeric ABCD1) (Homo sapiens, UniProt P33897, K217A)", "T2 construct": "single polypeptide: N-terminal FLAG tag, PMP-4 residues 1-65 replacing human ABCD1 residues 1-63, then human ABCD1 64-745; HEK293F; homodimer; LMNG/CHS for assays, digitonin for cryo-EM; with PMP-4 (peroxisomal membrane protein related, ABCD1 homolog, Caenorhabditis elegans; N-terminal segment fused to the target chain)", "T2 sequence (P33897 64-745 K217A)": "T1 sequence (P33897 64-745 T693M) with K154A, M630T", "settings": "5 μM C22:0-CoA, 2 mM ATP, 2 mM MgCl2, LMNG + CHS, pH 7.5, 37 °C"}, "chABCD1 (chimeric ABCD1) [3]": {"molecular_target": "T3, chABCD1 (chimeric ABCD1) (Homo sapiens, UniProt P33897, R104A)", "T3 construct": "single polypeptide: N-terminal FLAG tag, PMP-4 residues 1-65 replacing human ABCD1 residues 1-63, then human ABCD1 64-745; HEK293F; homodimer; LMNG/CHS for assays, digitonin for cryo-EM; with PMP-4 (peroxisomal membrane protein related, ABCD1 homolog, Caenorhabditis elegans; N-terminal segment fused to the target chain)", "T3 sequence (P33897 64-745 R104A)": "T1 sequence (P33897 64-745 T693M) with R41A, M630T", "settings": "5 μM C22:0-CoA, 2 mM ATP, 2 mM MgCl2, LMNG + CHS, pH 7.5, 37 °C"}}, "note": "Numbering of substitutions follows the chain as printed.", "data": [{"smiles": "CCCCCCCCCCCCCCCCCCCCCC(=O)SCCNC(=O)CCNC(=O)[C@H](O)C(C)(C)COP(=O)(O)OP(=O)(O)OC[C@H]1O[C@@H](n2cnc3c(N)ncnc32)[C@H](O)[C@@H]1OP(=O)(O)O", "note": "[C22:0-CoA]", "values": [{"measurement": "ATPase activity", "setting": "chABCD1 (chimeric ABCD1) [1]", "value": "ATPase activity assays of T693M mutant, which showed an almost non-detectable activity"}, {"measurement": "relative ATPase activity", "setting": "chABCD1 (chimeric ABCD1) [2]", "value": "displayed significantly decreased substrate-simulated ATPase activity, compared to the wild-type"}, {"measurement": "relative ATPase activity", "setting": "chABCD1 (chimeric ABCD1) [3]", "value": "displayed significantly decreased substrate-simulated ATPase activity, compared to the wild-type"}]}]}
